{"source": "patent US20040147613A1", "about": "“Use of neuroactive substances for the treatment of parkinsons disease and pharmaceutical combination” (priority 2001, published 2004)", "origin": "cited, not measured here", "key": {"[1]": {"system": "central DA-receptors", "details": "foetal administrations"}, "[2]": {"system": "local synapse populations / central projections"}, "[3]": {"system": "GABAergic axosomatic synapses in the medial prefrontal cortex", "details": "4-month chronic treatment, rat"}}}
{"compound": "β-endorphin", "values": [{"measurement": "effect on central DA-receptors", "setting": "[1]", "result": "expression of the plastic capacities, typical of adult rats, of central DA-receptors ceases"}]}
{"compound": "CNCCCN1c2ccccc2CCc2ccccc21", "note": "[desipramine]", "values": [{"measurement": "axonal sprouting of central projections", "setting": "[2]; chronic treatment", "result": "induces axonal sprouting of central noradrenergic and probably also dopaminergic cortical projections"}]}
{"compound": "O=C(CCCN1CCC(O)(c2ccc(Cl)cc2)CC1)c1ccc(F)cc1", "note": "[haloperidol]", "values": [{"measurement": "sprouting of glutamatergic corticostriatal projections", "setting": "[2]; 14-day chronic treatment", "result": "indications of transsynaptic sprouting of glutamatergic corticostriatal projections"}, {"measurement": "number of GABAergic axosomatic synapses in the medial prefrontal cortex", "setting": "[3]", "result": "dramatic rise in the number of GABAergic axosomatic synapses"}]}
